Measurements: US12612386B2, “Heteroaryl-triazole compounds as pesticides” (Bayer Aktiengesellschaft, priority 2020, dated 2026)

Legend:
Format in all cases: in vivo
[1] = test system: green peach aphid (Myzus persicae); experiment: whole plant or invertebrate; conditions: 120 h, MYZUPE oral, 0.16 ppm, 5 dat (Table 3), read-out: % Efficacy
Protocol: Solvent: 100 parts by weight acetone
To produce a suitable preparation of active compound, 1 part by weight of active compound is mixed with the stated amount of solvent, and the concentrate is diluted with water to the desired concentration.
50 μL compound solution is filled in microtiter plates and 150 μL IPL41 insect medium (33%+15% sugar) is added to obtain a total volume of 200 μL per well. Afterwards the plates are sealed with parafilm through which a mixed population of the green peach aphid (Myzus persicae) can suck on the compound preparation.
After 5 days mortality in % is determined. 100% means all aphids have been killed and 0% means none of the aphids have been killed.
Myzus persicae—Oral Test (MYZUPE Oral)

[2] = test system: fall armyworm larvae (Spodoptera frugiperda); experiment: whole plant or invertebrate; conditions: 168 h; for Emax at 20 g/ha: SPODFR, 20 g ai/ha, 7 dat (Table 3), read-out: % Efficacy
Summary of the method: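 Maize leaf sections sprayed with compound in acetone/DMF with alkylarylpolyglycol ether emulsifier diluted in water, then infested with fall armyworm larvae once dry. Mortality (%) scored after 7 days; 100% = all caterpillars killed.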

[3] = test system: cattle tick larvae (Rhipicephalus microplus), strain Parkhurst, resistant against synthetic pyrethroids; experiment: Rhipicephalus (Boophilus) microplus in-vitro contact test, larval cattle tick; conditions: 5 μg/cm^2 (=500 g/ha), after 48 hours
Summary of the method: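 Larvae exposed by contact to a dried acetone film on glass; a 900 ppm solution yields 5 μg/cm^2. Scoring after 48 h at 27° C. counts dead plus moribund larvae as efficacy.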

[4] = test system: adult cat fleas (Ctenocephalides felis); experiment: Ctenocephalides felis in-vitro contact test, adult cat flea; conditions: 5 μg/cm^2 (=500 g/ha), after 48 hours
Summary of the method: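 Acetone solutions of compound were coated onto inner walls of glass tubes (900 ppm giving 5 μg/cm^2) and dried; 5-10 adult C. felis were then held 48 h at room temperature. Efficacy = % fleas dead or moribund, judged by inability to escape a 45-50° C heating plate within 5 min.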

[5] = test system: adult brown dog ticks (Rhipicephalus sanguineus); experiment: Rhipicephalus sanguineus in-vitro contact test, adult brown dog ticks; conditions: 48 h, read-out: efficacy (ticks dead or moribund)
Summary of the method: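 Compound in acetone was coated onto inner walls of glass tubes by rotation (2 h, 30 rpm); 900 ppm gives 5 μg/cm^2. After drying, 5-10 adult ticks were enclosed per tube at room temperature; after 48 h, heat-escape test at 45-50° C scored dead/moribund ticks as % efficacy.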

[6] = test system: larvae of the banded cucumber beetle (Diabrotica balteata); experiment: Diabrotica balteata spray test; conditions: 168 h, 100 g/ha (=32 μg/well), after 7 days, read-out: efficacy (seedling growth)
Summary of the method: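 Germinated wheat seeds on agar (5 per well) were sprayed with compound formulated in acetone/DMF and diluted in water with 1000 ppm emulsifier. Each unit was then infested with 10–20 larvae. Efficacy % was scored after 7 days as seedling growth relative to an untreated, uninfested control (100% = normal growth).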

[7] = test system: green peach aphid (Myzus persicae); experiment: Myzus persicae spray test (MYZUPE); conditions: 120 h, 100 g/ha, after 5 days
Summary of the method: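 Chinese cabbage leaf disks infested with all instars of Myzus persicae were sprayed with compound formulated in acetone/dimethylformamide and diluted in water with 1000 ppm alkylarylpolyglycol ether emulsifier. Percent mortality was scored after 5 days, 100% meaning all aphids killed.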

[8] = test system: larvae of the southern green stink bug (Nezara viridula); experiment: whole plant or invertebrate; conditions: 96 h
Summary of the method: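 Compound in acetone/DMF was diluted in water with 1000 ppm alkylarylpolyglycol ether emulsifier. Barley plants were sprayed with it, then infested with Nezara viridula larvae. Mortality % was scored after 4 days (100% = all killed).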

[9] = test system: brown planthopper (Nilaparvata lugens); experiment: Nilaparvata lugens spray test; conditions: 96 h
Summary of the method: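 Rice plants (Oryza sativa) sprayed with compound formulated in acetone/DMF with alkylarylpolyglycol ether emulsifier (1000 ppm in diluting water), then infested with planthoppers. Mortality (%) scored after 4 days; 100% = all insects killed, 0% = none killed.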

[10] = test system: adult mosquitoes Aedes aegypti strain MONHEIM; experiment: Aedes aegypti test (AEDSAE surface treatment & contact assay); conditions: 24 hours after contact, read-out: efficacy (mortality)
Summary of the method: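 Compound in acetone containing 2000 ppm rapeseed oil methyl ester applied to a glazed tile and dried; adult mosquitoes exposed on the treated surface for 30 minutes. Percent mortality scored 24 hours after contact (100% = all dead, 0% = none dead).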

[11] = test system: adult mosquitoes Culex quinquefasciatus strain P00; experiment: Culex quinquefasciatus test (CULXFA surface treatment & contact assay); conditions: 24 hours after contact, read-out: efficacy (mortality)
Protocol: Culex quinquefasciatus Test (CULXFA Surface Treatment & Contact Assay)
(§1) Solvent: Aceton+2000 ppm rapeseed oil methyl ester (RME)
(§2) This solution is pipetted onto a glazed tile and after evaporation of the acetone, adult mosquitoes of the species Culex quinquefasciatus strain P00 are placed onto the dried surface. The exposure time is 30 minutes. Mortality in percent (%) is determined 24 hours after contact of the insects to the treated surface. 100% mortality means that all tested insects are dead, whereas 0% means that no insect died.

[12] = test system: adult flies Musca domestica strain WHO-N; experiment: Musca domestica test (MUSCDO surface treatment & contact assay); conditions: 24 hours after contact, read-out: efficacy (mortality)
Protocol: Musca domestica Test (MUSCDO Surface Treatment & Contact Assay)
as §1
as §2, with “flies” for “mosquitoes”, “Musca domestica” for “Culex quinquefasciatus”, “WHO-N” for “P00”

[13] = test system: adult animals Blattella germanica strain PAULINIA; experiment: Blattella germanica test (BLTTGE surface treatment & contact assay); conditions: 24 hours after contact, read-out: efficacy (mortality)
Protocol: Blattella germanica Test (BLTTGE Surface Treatment & Contact Assay)
as §1
In order to produce a sufficient, active ingredient containing solution it is necessary to solve the test compound in the solvent-mix (acetone at 2 mg/ml/RME 2000 ppm). This solution is pipetted onto a glazed tile and after evaporation of the acetone, adult animals of the species Blattella germanica strain PAULINIA are placed onto the dried surface. The exposure time is 30 minutes.
Mortality in percent (%) is determined 24 hours after contact of the insects to the treated surface. 100% mortality means that all tested insects are dead, whereas 0% means that no insect died.

[14] = surface concentration 4 mg/m^2, 30 min exposure
[15] = surface concentration 20 mg/m^2, 30 min exposure

Compound | Emax at 0.16 ppm [1] | Emax at 20 g/ha [2] | efficacy (larvae dead or moribund) [3] | efficacy (fleas dead or moribund) [4] | pest or weed control at 5 µg/cm2, 500 g/ha [5] | pest or weed control at 32 µg/disc, 100 g/ha [6] | mortality at 100 g/ha [7] | mortality at 100 g/ha [8] | mortality at 500 g/ha [8] | mortality at 500 g/ha [9] | mortality at 100 g/ha [2] | mortality at 4 mg/m2 [10, 14] | mortality at 20 mg/m2 [10, 15] | mortality at 4 mg/m2 [11, 14] | mortality at 20 mg/m2 [11, 15] | mortality at 4 mg/m2 [12, 14] | mortality at 20 mg/m2 [12, 15] | mortality at 4 mg/m2 [13, 14] | mortality at 20 mg/m2 [13, 15]
C[C@H](NC(=O)c1cc(Cl)cc(S(C)(=O)=O)c1)c1ncnn1-c1ccncn1 [I-146 Known from WO 2019197468, reference compound] | 0% | 33% |  |  |  |  |  |  |  |  |  |  |  |  |  |  |  |  | 
C[C@H](NC(=O)c1cc(Cl)cc(S(C)(=O)=O)c1)c1ncnn1-c1cc(C#N)ccn1 [I-148 Known from WO 2019197468, reference compound] | 0% | 33% |  |  |  |  |  |  |  |  |  |  |  |  |  |  |  |  | 
C[C@H](NC(=O)c1cc(Cl)cc(OC(F)(F)F)c1)c1ncnn1-c1cc(C(N)=O)ncn1 [I-49] |  |  | 100% | 100% | 80% | 100% | 100% | 100% | 100% | 100% | 100% | 80 to 100% | 80 to 100% | 80 to 100% | 80 to 100% | 80 to 100% | 80 to 100% | 80 to 100% | 80 to 100%
